Reference: patent publication US11091501B2, “Heterocyclic compounds as RSV inhibitors” (Enanta Pharmaceuticals, Inc., priority 2017, dated 2021)

Test system: Human RSV-A (“Long” strain)
Experiment: RSV in vitro cytoprotection assay (CPE, ATPlite) in HEp-2 cells
Format: cell-based
Conditions: human respiratory syncytial virus, 96 h; HEp-2 cells, 4-day incubation, ATPlite readout; read-out: Human RSV-A (“Long” strain) EC50
Text: RSV is a single stranded negative sense RNA virus that causes respiratory tract infections which can be dangerous to infants, the elderly, and immunosuppressed individuals. Currently there is no vaccine, and therapeutic options are both costly and of limited effectiveness. These approved treatments are Ribavirin, and Palivizumab/Synagis (a monoclonal antibody). RSV has two genotypes, A and B, which differ primarily in the structure of the virus' surface “G” attachment protein. Our current primary screen focuses on RSV-A and uses an in vitro cytoprotection assay where compounds are added in 2-fold dilutions to cells which are then subjected to fully replicative viral particles. Cell viability is measured several days later along with separate measurements of compound cytotoxicity. This report focuses on the results of our most recent screening of compounds.
HEp-2 cells, (originally derived from tumors grown in irradiated-cortisonised weanling rats that had been injected with epidermoid carcinoma tissue from a person's larynx, but later found to be indistinguishable from HeLa cells by PCR DNA analysis), were used for the culturing of genotype A, “Long” strain RSV. Flasks were inoculated with RSV and viral stocks were collected once cytopathic effect (CPE) was greater than 90%. Viral stocks in 25% sucrose media were snap frozen using liquid nitrogen to increase viral stability. Viral stock titers were quantified by tissue culture infectious dose 50% (TCID50) using 8,000 cells per well and 3-fold viral dilutions across a 96-well plate, cultured for 4 days.
Following extensive parameter testing, the final assay is run as follows: HEp-2 cells are seeded into the inner 60 wells of a 96-well plate at 8,000 cells per well in a volume of 50 μL using Growth Media (DMEM without phenol red, 1% L-Glut, 1% Penn/Strep, 1% nonessential amino acids, 10% FBS). 2-Fold serial dilutions of control and test compounds are added to the wells in duplicate in a total volume of 25 μL. Viral stock is then added to the wells in a volume of […] the total volume of each well to 100 μL. Each 96-well plate has a control column of 6 wells with cells and virus but no compound (negative control, max CPE), a column with cells but no compound or virus (positive control, minimum CPE), and a column with no cells or virus or compound (background plate/reagent control). The control wells with cells but no virus are given an additional 25 uL of growth media containing an equal quantity of sucrose as those wells receiving the viral stock in order to keep consistent in media and volume conditions. The outer wells of the plate are filled with 125 μL of growth media to act as a thermal and evaporative moat around the test wells. Following a 4-day incubation period, the plates are read using ATPlite (50 uL added per well), which quantifies the amount of ATP (a measure of cell health) present in each well. Assay plates are read using the Envision luminometer. In parallel, cytotoxicity is examined on an additional 96-well plate treated in an identical manner, but substituting the 25 μL of viral stock for 25 μL of growth media. […] EC50 ranges are as follows: A<0.01 μM; B 0.01-0.05 μM; C>0.05 μM.

Structure (SMILES)	EC50 [nM]
Cc1cnc(N2CC3(CCOCC3)C2)c(C(=O)Nc2ccc(C(=O)N3CCc4cc(NS(=O)(=O)c5c(F)cccc5Cl)sc4-c4ccccc43)cc2)c1 [Example 291]	> 50
Cc1cnc(N2CC3(CCOCC3)C2)c(C(=O)Nc2ccc(C(=O)N3CCc4cc(C(=O)Nc5c(Cl)cccc5Cl)sc4-c4ccc(F)cc43)cc2)c1 [Example 9]	< 10
O=C(Nc1ccc(C(=O)N2CCc3cc(-c4nc5ccccc5[nH]4)sc3-c3ccc(F)cc32)cc1)c1cccnc1N1CC2(CCOCC2)C1 [Example 38]	10 to 50
Cc1cnc(N2CC3(CCOCC3)C2)c(C(=O)Nc2ccc(C(=O)N3CCc4cc(-c5ccnn5C)sc4-c4ccc(F)cc43)cc2)c1 [Example 161]	< 10
Cc1cnc(N2CC3(CCOCC3)C2)c(C(=O)Nc2ccc(C(=O)N3CCc4cc(-c5ccc(=O)[nH]c5)sc4-c4ccc(F)cc43)cc2)c1 [Example 184]	< 10
Cc1cnc(N2CC3(CCOCC3)C2)c(C(=O)Nc2ccc(C(=O)N3CCc4cc(-c5nnco5)sc4-c4ccc(F)cc43)cc2)c1 [Example 141]	< 10
O=C(Nc1ccc(C(=O)N2CCc3cc(-c4nc5ccccc5[nH]4)oc3-c3ccccc32)cc1)c1cc2c(nc1N1CC3(CCOCC3)C1)CCC2 [Example 260]	< 10
Cc1ccc(C(=O)Nc2ccc(C(=O)N3CCc4cc(C(=O)Nc5c(F)cc(F)cc5F)oc4-c4ccccc43)cc2)c(N2CC3(CCOCC3)C2)n1 [Example 257]	< 10
O=C(Nc1ccc(C(=O)N2CCc3cc(-c4nnco4)sc3-c3ccc(F)cc32)cc1)c1cccnc1N1CC2(CCOCC2)C1 [Example 142]	> 50
O=C(Nc1c(F)cccc1F)c1cc2c(s1)-c1ccc(F)cc1N(C(=O)c1ccc(NC(=O)c3cccnc3N3CC4CCCC4C3)cc1)CC2 (stereo not drawn) [Example 47]	10 to 50
Cc1cnc(N2CC3(CCOCC3)C2)c(C(=O)Nc2ccc(C(=O)N3CCc4cc(-c5cccnc5F)sc4-c4ccc(F)cc43)cc2)c1 [Example 164]	< 10
Cc1cnc(N2CC3(CCOCC3)C2)c(C(=O)Nc2ccc(C(=O)N3CCc4sc(-c5nc6ccccc6[nH]5)cc4-c4ccccc43)cc2)c1 [Example 262]	10 to 50
Cc1cccc(F)c1NC(=O)c1cc2c(s1)-c1ccc(C(F)(F)F)cc1N(C(=O)c1ccc(NC(=O)c3cccnc3N3CC4(CCOCC4)C3)cc1)CC2 [Example 85]	> 50
O=C(Nc1c(F)cccc1Cl)c1cc2c(o1)-c1ccccc1N(C(=O)c1ccc(NC(=O)c3cc4c(nc3N3CC5(CCOCC5)C3)CCC4)cc1)CC2 [Example 249]	< 10
Cc1cnc(N2CC3(CCOCC3)C2)c(C(=O)Nc2ccc(C(=O)N3CCc4cc(C(=O)Nc5ccnnc5)sc4-c4ccc(F)cc43)cc2)c1 [Example 127]	10 to 50
O=C(Nc1c(F)cccc1C(F)(F)F)c1cc2c(s1)-c1cc(F)c(F)cc1N(C(=O)c1ccc(NC(=O)c3cc(F)cnc3N3CC4(CCOCC4)C3)cc1)CC2 [Example 75]	10 to 50
CCOCCNc1ncccc1C(=O)Nc1ccc(C(=O)N2CCc3cc(C(=O)Nc4c(F)cccc4F)sc3-c3ccc(F)cc32)cc1 [Example 54]	> 50
Cc1cnc(N2CC3(CCOCC3)C2)c(C(=O)Nc2ccc(C(=O)N3CCc4cc(-c5c[nH]c6ncccc56)sc4-c4ccc(F)cc43)cc2)c1 [Example 173]	< 10
N#Cc1cnc(N2CC3(CCOCC3)C2)c(C(=O)Nc2ccc(C(=O)N3CCc4cc(C(=O)Nc5c(Cl)cccc5Cl)sc4-c4ccc(F)cc43)cc2)c1 [Example 18]	10 to 50
Cc1cnc(N2CC3(CCOCC3)C2)c(C(=O)Nc2ccc(C(=O)N3CCc4c(sc(-c5nc6cccc(Cl)c6[nH]5)c4F)-c4ccccc43)cc2)c1 [Example 202]	10 to 50
Cc1cnc(N2CC3(CCOCC3)C2)c(C(=O)Nc2ccc(C(=O)N3CCc4cc(C(=O)Nc5nc(C)co5)sc4-c4ccc(F)cc43)cc2)c1 [Example 135]	< 10
Cc1cnc(N2CC3(CCOCC3)C2)c(C(=O)Nc2ccc(C(=O)N3CCc4c(sc(-c5nc6ccccc6[nH]5)c4C)-c4ccccc43)cc2)c1 [Example 273]	10 to 50
O=C(Nc1c(F)cccc1F)c1cc2c(s1)-c1ccc(F)cc1N(C(=O)c1ccc(NC(=O)c3cccnc3N3CC4CCC(C3)O4)cc1)CC2 [Example 50]	10 to 50

Structure (SMILES)	EC50 [nM]
Cc1cnc(N2CC3(CCOCC3)C2)c(C(=O)Nc2ccc(C(=O)N3CCc4c(sc(C(=O)Nc5ncccc5F)c4F)-c4ccccc43)cc2)c1 [Example 215]	< 10
Cc1cnc(N2CC3(CCOCC3)C2)c(C(=O)Nc2ccc(C(=O)N3CCc4cc(C(=O)Nc5c(F)cncc5F)sc4-c4ccc(F)cc43)cc2)c1 [Example 117]	< 10
O=C(Nc1ccc(C(=O)N2CCc3cc(-c4nc5cccc(Cl)c5[nH]4)sc3-c3ccc(F)cc32)cc1)c1cc(F)cnc1N1CC2(CCOCC2)C1 [Example 44]	10 to 50
O=C(Nc1c(Cl)cccc1Cl)c1cc2c(o1)-c1ccc(F)cc1N(C(=O)c1ccc(NC(=O)c3cc4c(nc3N3CC5(CCOCC5)C3)CCCC4)cc1)CC2 [Example 242]	< 10
Cc1cnc(N2CC3(CCOCC3)C2)c(C(=O)Nc2ccc(C(=O)N3CCc4cc(-c5nnn[nH]5)sc4-c4ccc(F)cc43)cc2)c1 [Example 196]	> 50
Cc1cnc(N2CC3(CCOCC3)C2)c(C(=O)Nc2ccc(C(=O)N3CCc4cc(NC(=O)Oc5ccccc5)sc4-c4ccccc43)cc2)c1 [Example 296]	10 to 50
O=C(Nc1c(F)cccc1F)c1cc2c(s1)-c1ccc(F)cc1N(C(=O)c1ccc(NC(=O)c3cccnc3N3CCCOCC3)cc1)CC2 [Example 51]	> 50
Cc1cnc(N2CC3(CCOCC3)C2)c(C(=O)Nc2ccc(C(=O)N3CCc4c(sc(C(=O)Nc5ncc(C(F)(F)F)s5)c4F)-c4ccccc43)cc2)c1 [Example 225]	> 50
O=C(Nc1c(F)cccc1Cl)c1cc2c(s1)-c1cc(F)c(F)cc1N(C(=O)c1ccc(NC(=O)c3cc(F)cnc3N3CC4(CCOCC4)C3)cc1)CC2 [Example 74]	10 to 50
O=C(Nc1c(F)cccc1F)c1cc2c(s1)-c1ccc(F)cc1N(C(=O)c1ccc(NC(=O)c3cccnc3-c3ccc(N4CCOCC4)cc3)cc1)CC2 [Example 62]	> 50
Cc1cnc(N2CC3(CCOCC3)C2)c(C(=O)Nc2ccc(C(=O)N3CCc4cc(-c5ccc6[nH]ncc6c5)sc4-c4ccc(F)cc43)cc2)c1 [Example 178]	< 10
O=C(Nc1c(F)cccc1F)c1cc2c(s1)-c1ccc(F)cc1N(C(=O)c1ccc(NC(=O)c3cc4c(nc3N3CC5(CCOCC5)C3)CCC4)cc1)CC2 [Example 65]	< 10
O=C(Nc1c(F)cccc1F)c1cc2c(s1)-c1ccc(F)cc1N(C(=O)c1ccc(NC(=O)c3cccnc3C3CCOCC3)cc1)CC2 [Example 61]	10 to 50
Cc1ccc(C(=O)Nc2ccc(C(=O)N3CCc4sc(C(=O)Nc5c(F)cccc5F)cc4-c4ccccc43)cc2)c(N2CC3(CCOCC3)C2)n1 [Example 265]	> 50
Cc1cnc(N2CC3(CCOCC3)C2)c(C(=O)Nc2ccc(C(=O)N3CCc4c(sc(C(=O)Nc5nc(C)ccc5F)c4F)-c4ccccc43)cc2)c1 [Example 219]	< 10
Cc1cnc(N2CC3(CCOCC3)C2)c(C(=O)Nc2ccc(C(=O)N3CCc4cc(C(=O)NC5CCNC5)sc4-c4ccc(F)cc43)cc2)c1 (stereo not drawn) [Example 129]	> 50
Cc1cnc(N2CC3(CCOCC3)C2)c(C(=O)Nc2ccc(C(=O)N3CCc4cc(C(=O)N[C@H]5CCOC5)sc4-c4ccc(F)cc43)cc2)c1 [Example 124]	< 10
Cc1ccc(C(=O)Nc2ccc(C(=O)N3CCc4cc(C(=O)Nc5c(C)cccc5F)sc4-c4ccc(F)cc43)cc2)c(N2CC3(CCOCC3)C2)n1 [Example 112]	< 10
O=C(Nc1c(Cl)cccc1Cl)c1cc2c(o1)-c1ccccc1N(C(=O)c1ccc(NC(=O)c3cc4c(nc3N3CC5(CCOCC5)C3)CCC4)cc1)CC2 [Example 251]	< 10
Cc1cnc(N2CC3(CCOCC3)C2)c(C(=O)Nc2ccc(C(=O)N3CCc4cc(-c5nc(C)cs5)sc4-c4ccc(F)cc43)cc2)c1 [Example 152]	10 to 50
O=C(Nc1ccccc1)c1cc2c(o1)-c1ccccc1N(C(=O)c1ccc(NC(=O)c3cc4c(nc3N3CC5(CCOCC5)C3)CCC4)cc1)CC2 [Example 246]	< 10
Cc1cnc(N2CC3(CCOCC3)C2)c(C(=O)Nc2ccc(C(=O)N3CCc4cc(C(=O)Nc5ncc(C)o5)sc4-c4ccc(F)cc43)cc2)c1 [Example 134]	< 10
